Laboratory results from patent publication US20170050957A1, “4-AMINO-6-(HETEROCYCLIC)PICOLINATES AND 6-AMINO-2-(HETEROCYCLIC)PYRIMIDINE-4-CARBOXYLATES AND THEIR USE AS HERBICIDES” (Dow AgroSciences LLC, priority 2013, published 2017).
Where two headings read alike, the source gives them in different places.

Experiments:
[1] = system: Key Grass and Sedge Weeds as well as Grass Crops; experiment: Post-emergent Test II herbicidal activity (Table 16); type: in vivo; details: post-emergence, 336 h, 14 d; for pest or weed control at 35 g/ha: 35 g ai/ha; for pest or weed control at 70 g/ha: 70 g ai/ha; for pest or weed control at 140 g/ha: 140 g ai/ha
Outline: (§1)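 Visual injury rating (0 = none, 100% = complete kill) made 14 d after treatment, relative to untreated plants. Compounds in an acetone/DMSO/aqueous crop-oil/surfactant spray, at top rate and serial 1/2×-1/16× rates, were applied at 187 L/ha overhead to first-second true leaf plants raised 7-21 d in greenhouse.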

[2] = system: Key Broadleaf Weed and Crop Species; experiment: Post-emergent Test II herbicidal activity (Table 15); type: in vivo; details: post-emergence, 336 h, 14 d; for pest or weed control at 35 g/ha: 35 g ai/ha; for pest or weed control at 70 g/ha: 70 g ai/ha; for pest or weed control at 140 g/ha: 140 g ai/ha
Outline: as §1

[3] = Cyperus esculentus, yellow nutsedge (Cyperus esculentus), read-out: Visual Growth Reduction (%) 14 Days After Application, CYPES
[4] = Echinochloa crus-galli, barnyardgrass (Echinochloa crus-galli), read-out: Visual Growth Reduction (%) 14 Days After Application, ECHCG
[5] = Oryza sativa, rice (Oryza sativa), read-out: Visual Growth Reduction (%) 14 Days After Application, ORYSA
[6] = Setaria faberi, giant foxtail (Setaria faberi), read-out: Visual Growth Reduction (%) 14 Days After Application, SETFA
[7] = Triticum aestivum, wheat, spring (Triticum aestivum), read-out: Visual Growth Reduction (%) 14 Days After Application, TRZAS
[8] = Zea mays, maize, corn (Zea mays), read-out: Visual Growth Reduction (%) 14 Days After Application, ZEAMX
[9] = Abutilon theophrasti, velvetleaf (Abutilon theophrasti), read-out: Visual Growth Reduction (%) 14 Days After Application, ABUTH
[10] = Amaranthus retroflexus, redroot pigweed (Amaranthus retroflexus), read-out: Visual Growth Reduction (%) 14 Days After Application, AMARE
[11] = Brassica napus, oilseed rape, canola (Brassica napus), read-out: Visual Growth Reduction (%) 14 Days After Application, BRSNN
[12] = Chenopodium album, lambsquarters (Chenopodium album), read-out: Visual Growth Reduction (%) 14 Days After Application, CHEAL
[13] = Euphorbia heterophylla, wild poinsettia (Euphorbia heterophylla), read-out: Visual Growth Reduction (%) 14 Days After Application, EPHHL
[14] = Helianthus annuus, sunflower (Helianthus annuus), read-out: Visual Growth Reduction (%) 14 Days After Application, HELAN

`COC(=O)c1nc(-c2ccc3[nH]ccc3c2)c(F)c(N)c1Cl` [Compound 1.02, Methyl 4-amino-3-chloro-5-fluoro-6-(1H-indol-5-yl)picolinate] gave a pest or weed control at 35 g/ha [1, 3] of 0 to 29%, a pest or weed control at 70 g/ha [1, 3] of 0 to 29% and a pest or weed control at 140 g/ha [1, 3] of 0 to 29%. The pest or weed control at 35 g/ha [1, 4] was 0 to 29%, the pest or weed control at 70 g/ha [1, 4] was 0 to 29% and the pest or weed control at 140 g/ha [1, 4] was 45 to 59%. For the same molecule, the pest or weed control at 35 g/ha [1, 5] was 0 to 29%, the pest or weed control at 70 g/ha [1, 5] was 0 to 29% and the pest or weed control at 140 g/ha [1, 5] was 0 to 29%. The pest or weed control at 35 g/ha [1, 6] was 0 to 29%, the pest or weed control at 70 g/ha [1, 6] was 0 to 29% and the pest or weed control at 140 g/ha [1, 6] was 0 to 29%. It also gave a pest or weed control at 35 g/ha [1, 7] of 0 to 29%, a pest or weed control at 70 g/ha [1, 7] of 0 to 29% and a pest or weed control at 140 g/ha [1, 7] of 0 to 29%. For the same molecule, the pest or weed control at 35 g/ha [1, 8] was 0 to 29%, the pest or weed control at 70 g/ha [1, 8] was 0 to 29% and the pest or weed control at 140 g/ha [1, 8] was 0 to 29%. For the same molecule, the pest or weed control at 35 g/ha [2, 9] was 0 to 29%, the pest or weed control at 70 g/ha [2, 9] was 0 to 29% and the pest or weed control at 140 g/ha [2, 9] was 0 to 29%. It also gave a pest or weed control at 70 g/ha [2, 10] of 85 to 94%, a pest or weed control at 140 g/ha [2, 10] of 85 to 94% and a pest or weed control at 35 g/ha [2, 11] of 0 to 29%. It also gave a pest or weed control at 70 g/ha [2, 11] of 0 to 29%, a pest or weed control at 140 g/ha [2, 11] of 0 to 29% and a pest or weed control at 35 g/ha [2, 12] of 75 to 84%. The pest or weed control at 70 g/ha [2, 12] was 85 to 94%, the pest or weed control at 140 g/ha [2, 12] was 95 to 100% and the pest or weed control at 35 g/ha [2, 13] was 45 to 59%. For the same molecule, the pest or weed control at 70 g/ha [2, 13] was 45 to 59%, the pest or weed control at 140 g/ha [2, 13] was 60 to 74% and the pest or weed control at 35 g/ha [2, 14] was 45 to 59%. For the same molecule, the pest or weed control at 70 g/ha [2, 14] was 60 to 74%, the pest or weed control at 140 g/ha [2, 14] was 60 to 74% and the melting point was 221 to 224 °C.
